Reference: the NIST ThermoML archive (doi:10.1021/je034197x)
± gives the expanded uncertainty stated by the source.

Settings: Liquid, Closed cell (Static) method

vapor or sublimation pressure (298.15 K)	vapor or sublimation pressure (303.15 K)	vapor or sublimation pressure (308.15 K)	vapor or sublimation pressure (313.15 K)	vapor or sublimation pressure (318.15 K)	vapor or sublimation pressure (323.15 K)	vapor or sublimation pressure (328.15 K)	vapor or sublimation pressure (333.15 K)	vapor or sublimation pressure (338.15 K)	vapor or sublimation pressure (343.15 K)	vapor or sublimation pressure (348.15 K)	vapor or sublimation pressure (353.15 K)	vapor or sublimation pressure (358.15 K)	vapor or sublimation pressure (363.15 K)	SMILES
2.88 ± 0.013 kPa	3.998 ± 0.015 kPa	5.374 ± 0.018 kPa	7.197 ± 0.023 kPa	9.568 ± 0.028 kPa	12.42 ± 0.035 kPa	16.14 ± 0.044 kPa	20.72 ± 0.055 kPa	26.41 ± 0.069 kPa	33.23 ± 0.086 kPa	41.63 ± 0.11 kPa	51.67 ± 0.13 kPa	63.69 ± 0.16 kPa	77.81 ± 0.2 kPa	CCCO [propan-1-ol]
7.916 ± 0.024 kPa	10.54 ± 0.031 kPa	13.84 ± 0.039 kPa	17.98 ± 0.049 kPa	23.17 ± 0.062 kPa	29.58 ± 0.077 kPa	37.46 ± 0.097 kPa	46.95 ± 0.12 kPa	58.58 ± 0.15 kPa	72.24 ± 0.18 kPa	88.66 ± 0.22 kPa	–	–	–	CCO [ethanol]
1.003 ± 0.2 kPa	1.317 ± 0.2 kPa	1.841 ± 0.2 kPa	2.544 ± 0.2 kPa	3.453 ± 0.2 kPa	4.648 ± 0.2 kPa	6.171 ± 0.2 kPa	8.103 ± 0.2 kPa	10.56 ± 0.2 kPa	13.6 ± 0.2 kPa	17.37 ± 0.2 kPa	21.98 ± 0.2 kPa	27.65 ± 0.2 kPa	34.41 ± 0.21 kPa	CCCCO [butan-1-ol]
5.799 ± 0.2 kPa	7.859 ± 0.2 kPa	10.52 ± 0.2 kPa	13.94 ± 0.2 kPa	18.24 ± 0.2 kPa	23.64 ± 0.2 kPa	30.35 ± 0.21 kPa	38.59 ± 0.21 kPa	48.66 ± 0.21 kPa	60.66 ± 0.22 kPa	75.22 ± 0.23 kPa	92.44 ± 0.24 kPa	–	–	CC(C)O [propan-2-ol]
2.44 ± 0.2 kPa	3.373 ± 0.2 kPa	4.588 ± 0.2 kPa	6.234 ± 0.2 kPa	8.252 ± 0.2 kPa	10.86 ± 0.2 kPa	14.13 ± 0.2 kPa	18.34 ± 0.2 kPa	23.49 ± 0.2 kPa	29.71 ± 0.21 kPa	37.2 ± 0.21 kPa	46.36 ± 0.21 kPa	57.16 ± 0.22 kPa	70.24 ± 0.23 kPa	CCC(C)O (stereo not drawn) [butan-2-ol]
16.95 ± 0.046 kPa	21.88 ± 0.058 kPa	27.98 ± 0.073 kPa	35.51 ± 0.092 kPa	44.59 ± 0.11 kPa	55.65 ± 0.14 kPa	68.94 ± 0.17 kPa	84.62 ± 0.21 kPa	–	–	–	–	–	–	CO [methanol]
